The text below walks through data of US20050020544A1, “Bicyclic CB2 cannabinoid receptor ligands” (priority 2002, published 2005).

One experiment addresses T1, human CB1 receptor (Homo sapiens, UniProt P21554).
T1 construct: purchased Perkin Elmer/NEN; host or cells: HEK-293 cells, stably transfected (membranes)
In words: biochemical. The settings on record: displacement of [3H]CP55940, hCB1 HEK-293 membranes; read-out: CB1 IC50. In kind it is binding. As to the method: (§1) In the present invention, binding affinity is represented by the IC50 value, namely the concentration of a test compound that will displace 50% of a radiolabeled agonist from the CB receptors. […] Preferably these ratios will be obtained for human CB1 and CB2 receptors. The selectivity toward CB2, denoted CB2/CB1 affinity, is calculated as the IC50 value obtained by the test compound for the displacement of the CB1 specific radioligand divided by the IC50 value obtained for the displacement of the CB2 specific radioligand, i.e. the IC50 CB1/IC50 CB2.
The CB1 binding assays were performed by testing the ability of the new compounds to displace [^3H]CP55940 from the CB1 receptor on membranes derived from hCB1 stably transfected HEK-293 cells (Perkin Elmer/NEN). Membranes were diluted in the assay buffer (50 mM Tris-HCl, 2.5 mM EDTA, 5 mM MgCl2, 1 mg/ml BSA, pH=7.4) to 500 μg protein/ml. 50 μl of diluted membranes (25 μg) were incubated with [^3H]CP55940 in the presence or absence of the bicyclic test compounds in a total volume of 0.5 ml. Tested compounds were dissolved in DMSO and diluted in the assay buffer to a final concentration of 0.1% solvent. Control samples were added with identical amount of vehicle. Non-specific binding was measured by the addition of 10 μM of WIN 55212-2. Following 1.5 hours incubation at 30° C. reactions were filtered through Whatman 934A/H filters (presoaked with 0.1% Polyethylenimine (PEI)).
(§2) Binding to CB1 is measured by competitive inhibition of [^3H]CP55940 in HEK-293 cells stably transfected with the human CB1 receptor gene. Binding to CB2 is measured by competitive inhibition of [^3H]WIN55212-2 in CHO cells stably transfected with the human CB2 receptor gene.

The target of experiment [1] is T2, human CB2 receptor (Homo sapiens, UniProt P34972). In words: Adenylylcyclase assay: forskolin-activated cAMP in CB2 transfected HEK-293 cells. The conditions noted are these: CB2 receptor transfected HEK-293, 1 μM forskolin. In kind it is cell-based. The method, then: Cannabinoids and derivatives bind to G-protein-coupled CB1 and CB2 receptors and exert their activity via the inhibition of adenylylcyclase activity. An adenylylcyclase assay forms a basis for the functional analysis of the compounds by determining their capacity to inhibit or promote forskolin-activated cAMP production. The assay is carried out according to Chin et al. (Chin, C. N. et al., J. Neurochem. 70: 366-73, 1998). Briefly, HEK-293 human kidney cells (ATCC#CRL-1573) stably transfected with either the human CB1 or CB2 receptor (cDNA) were grown in DMEM supplemented with 10% fetal calf serum, 1% Penicillin-Streptomycin and 2 mM L-glutamine. Cells were seeded in 24 wells plate at 5×10^4 cells/well and incubated for 48 hours. Medium was then removed and the adherent cells were washed with PBS. Two hundred μl of serum free medium supplemented with 0.2 mM Ro 20-1724, 0.25% BSA, and 20 mM HEPES was then added to each well. The cells were then activated with 1 μM forskolin in presence of the bicyclic test compounds in concentrations ranging from 10 pM up to 1 μM. The activated cells were then incubated at 37° C. for 20 minutes and the reaction terminated with 1.2 M HCl to a final concentration of 0.1 M. Cells were lyzed by freeze and thaw and the lysate was neutralized with 2 M HEPES, pH 7.5. cAMP was measured in 50 μl aliquots using the [^3H]-cAMP assay system (Amersham).
This experiment was first performed on CB2 receptor transfected cells.

In experiment [2] the target is T2, human CB2 receptor. Nature of the experiment: biochemical. In kind it is binding. Details: purchased Perkin Elmer/NEN; host or cells: CHO cells, stably transfected (membranes). The conditions noted are these: for CB2/CB1 affinity ratio: IC50 CB1/IC50 CB2; for IC50: displacement of [3H]WIN 55212-2, hCB2 CHO membranes. The method, then: as §1
The affinities of the novel bicyclic analogs to the CB2 receptor were determined by their ability to displace [^3H]WIN 55212-2 from the receptor in membranes derived from hCB2 stably transfected CHO cells (Perkin Elmer/NEN). Membranes were diluted in assay buffer (10 mM HEPES, 1 mM MgCl2, 1 mM EDTA, 0.3 mg/ml BSA, pH=7.4) to 500 μg protein/ml. 50 μl of diluted membranes (25 μg) were incubated with 0.8 nM of [^3H]WIN 55212-2 in the presence or absence of several concentrations of the bicyclic test compounds in a total volume of 1 ml. Tested compounds were dissolved and diluted as previously described for the hCB1 assay. Non-specific binding was measured by the addition of 10 μM CP 55940. Following 40 minutes incubation at 30° C. reactions were filtered as previously described. Filters for all binding assays were counted in a β-counter and log of analog concentration versus % of binding was plotted. IC50 values were extrapolated from this plot.
as §2

In a further experiment the test system is Female Balb/c mice. As to the method:
The purpose of this study is to test in vivo the anti-inflammatory activity of the compounds in paw edema induced by injection of 1% carrageenan in the animal hind paw. Female Balb/c mice (20 g average body weight, Harlan, Israel) are anesthetized with a combination of xylazine and pentobarbitone diluted in sterile saline, 15 and 6 mg/kg i.p. respectively. Anesthetized mice are injected subcutaneously, in the subplantar region of one (right) paw with 0.05 ml of 1% w/v Carrageenan in sterile water. […] The test compounds, including known anti-inflammatory controls, are dissolved in CREMOPHOR EL®:ethanol and further diluted 1:20 or 1:50 in sterile saline prior to i.p. injection that takes place immediately before the carrageenan injection. Three hours after injection the animals are resedated following the previously described procedure. Paw thickness is measured using a dial thickness gauge (Spring-dial, constant low pressure gauge, Mitutoyo, TG/L-1, 0.01 mm) and paw volume is measured using a plethysmometer (model #7150, Ugo Basile, Italy). Paw Edema is expressed as the difference between the right treated and the left untreated paws of the same animal, either as Δ Paw Volume (ΔPV) in millimeters cube or as Δ Paw Thickness (ΔPT) in millimeters. Each group comprises at least 10 animals. […] At the end of the study, animals are euthanized with an i.p. injection of 100 mg/kg pentobarbitone.
The differences among various treatment groups are analyzed by analysis of variance (ANOVA) followed by post-hoc Fisher test. A value of p<0.05 is considered to be statistically significant.
For sake of comparison, known anti-inflammatory drugs such as Celecoxib and Dexamethasone yield respectively in the range of relevant doses 7% and 26% reduction in paw thickness at 0.1 mg/kg, 16% and 31% at 0.25 mg/kg and 24% and 33% at 0.5 mg/kg. […] It should be kept in mind that these commercially available drugs display serious side effects that prevent chronic uses without complementary protective medication.

Another experiment has as its system Male Sprague Dawley rats. In words: Inflammatory pain: carrageenan paw edema in rats, thermal and mechanical stimuli. Type of experiment: in vivo, rat. The settings on record: 10 mg/kg i.p., three hours. As to the method: Male Sprague Dawley rats (200 g average body weight, Harlan, Israel) are transiently sedated by placement on dry ice for the duration of the injections. […] Before induction of inflammatory pain and three hours after injection, the animals reactions to pain stimuli were tested in two systems. The first stimulus was thermal and assessed by the Plantar Test according to Hargreaves, using Ugo Basile Model 7370. The scale was set to an intensity of 50 arbitrary units. The latency time till the animal lift a paw as a reaction to the thermal stimulus was recorded for both the inflamed and non-inflamed hind paws. The second stimulus was mechanical (tactile) and assessed using a Dynamic Plantar Sesthesiomether (Ugo Basile Model 73400-002).
The results are measured as the differences between the two hind paws at time 0 and 3 hours both as ALT, for the latency time in the thermal part of the study, and as ΔForce, for the mechanical part of the study.

A further experiment concerns ICR male mice. In words: Tail flick model for acute peripheral pain, i.p. In kind it is in vivo, mouse. The settings on record: 10 mg/kg i.p., 330 minutes (five and a half hours). As to the method: ICR male mice (20-30 g average body weight, Harlan, Israel) were injected i.p. at the volume dose of 5 ml/kg. Each treatment group contained at least 6 animals. Morphine HCl was used as positive control at the final dose of 5 mg/kg. Its vehicle, saline, was also included as control. The test compounds were dissolved in CREMOPHOR EL®:ethanol and diluted 1:20 in saline prior to injection, this second type of vehicle was also included as negative control. The final dose injected varied from 0.1 to 10 mg/kg. At predetermined time points after treatment injection, the animals were placed in the tail flick system (Socrel, model DS 20). Animals were gently held while their tails were located above the photoelectric cell. The tails were then illuminated (21V) at 2 cm from the distal tip and the latency time, measured in seconds, was recorded in duplicates. At the end of the study, the animals were euthanized by i.p. injection of 100 mg/kg sodium pentobarbitone.
Two parameters were used to analyze the results, the latency time and the % of animals showing analgesia. […] The results in both cases are expressed as mean±SE. The differences between the latency times or the % of animals showing analgesia among various treatment groups was analyzed by analysis of variance (ANOVA) followed by post-hoc Tukey's test (for latency) or Fisher's exact test (for % animals). A value of p<0.05 is considered to be statistically significant.

Molecules are shown by their SMILES. Read-outs that look alike come from different tables or passages of the source.

T2 sequence (P34972 whole entry): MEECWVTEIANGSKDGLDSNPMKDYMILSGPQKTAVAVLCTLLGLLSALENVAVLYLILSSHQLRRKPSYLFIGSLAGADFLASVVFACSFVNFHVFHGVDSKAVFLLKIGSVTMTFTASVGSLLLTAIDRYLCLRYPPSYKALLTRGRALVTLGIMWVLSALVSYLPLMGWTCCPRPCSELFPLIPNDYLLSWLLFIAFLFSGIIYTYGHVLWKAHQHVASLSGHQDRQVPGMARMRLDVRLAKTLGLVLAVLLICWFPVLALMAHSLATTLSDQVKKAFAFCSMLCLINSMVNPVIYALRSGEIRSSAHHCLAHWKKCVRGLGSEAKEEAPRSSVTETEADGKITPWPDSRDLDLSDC
T1 sequence (P21554 whole entry): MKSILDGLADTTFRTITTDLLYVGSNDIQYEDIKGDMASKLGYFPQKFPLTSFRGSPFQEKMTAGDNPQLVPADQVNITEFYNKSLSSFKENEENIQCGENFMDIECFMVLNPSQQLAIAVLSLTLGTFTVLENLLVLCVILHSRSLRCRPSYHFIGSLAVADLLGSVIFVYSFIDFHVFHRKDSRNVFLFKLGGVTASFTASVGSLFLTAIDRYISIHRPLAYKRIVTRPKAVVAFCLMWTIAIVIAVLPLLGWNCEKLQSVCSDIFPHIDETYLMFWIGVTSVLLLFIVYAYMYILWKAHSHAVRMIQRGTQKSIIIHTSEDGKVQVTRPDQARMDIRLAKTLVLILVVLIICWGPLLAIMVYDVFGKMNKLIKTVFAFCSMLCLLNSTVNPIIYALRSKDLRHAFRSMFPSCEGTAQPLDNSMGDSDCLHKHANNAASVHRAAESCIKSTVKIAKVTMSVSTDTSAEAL

As to `CCCCCCC(C)(C)c1cc(OC(=O)CCC(=O)O)c([C@H]2CC(=O)[C@H]3C[C@@H]2C3(C)C)c(OC(=O)CCC(=O)O)c1` [Compound S, 4-{4-[1,1-Dimethyl-heptyl]-2,6-bisuccinate-phenyl}-6,6-dimethyl-bicyclo[3.1.1]heptan-2-one], the 50% inhibitory concentration (IC50) at human CB1 receptor amounted to 117 nM; on human CB2 receptor [1] (read-out: IC50 inhibition of cAMP level), 0.16 nM; at human CB2 receptor [2], 1.52 nM. The inhibition at 1 µM at human CB2 receptor [1] (HEK293, read-out: % inhibition at 1 μM) is 58%. Also, the CB2/CB1 affinity ratio on human CB2 receptor [2] is on record as 77.

For the compound `Cc1ccc(-c2cc(C(F)(F)F)nn2-c2ccc(S(N)(=O)=O)cc2)cc1` [Celecoxib, reference compound], the “reduction in paw thickness” value worked out at 7% with Female Balb/c mice (0.1 mg/kg), 16% with Female Balb/c mice (0.25 mg/kg) and 24% with Female Balb/c mice (0.5 mg/kg). In addition, the “ΔLT (thermal stimulus)” value with Male Sprague Dawley rats came to 0 s.

Regarding `CCCCCCC(C)(C)c1cc(O)c(C2CC(=O)[C@H]3C[C@@H]2C3(C)C)c(OC(=O)/C=C/C(=O)O)c1` (single isomer, unassigned; (-)) [Compound Z, (−)-4-{4-[1,1-Dimethyl-heptyl]-2-fumarate-6-hydroxy-phenyl}-6,6-dimethyl-bicyclo[3.1.1]heptan-2-one], the IC50 on human CB1 receptor was found to be 816 nM. Moreover, in the experiment with ICR male mice, the “% animals showing increased analgesia” value is recorded as “about 60%” and the latency time is 5.2 s. The “ΔForce (tactile stimulus)” value with Male Sprague Dawley rats is listed as 2 g. Besides, at human CB2 receptor [2], the CB2/CB1 affinity ratio is 656 and the IC50 stood at 1.2 nM.
